In patent US10047050B2, “3,4-di-substituted pyridine compound, methods of using and compositions comprising the same” (ARDEA BIOSCIENCES, INC., priority 2011, dated 2018):
Where “and” joins values, the source holds several entries; their conditions need not be identical. Equal values may be shown once.

System: serum uric acid
Assay: Multi-dose Phase I clinical trial, serum uric acid (sUA), once daily for 10 days
Format: in vivo, human
Details: for % sUA change (from baseline), Mean (3-11) / Absolute sUA concentration, Mean (3-11): group 9, 10 mg once daily for 10 days, mean of subjects 3-11; for % sUA change (from baseline), Mean (4-12) / Absolute sUA concentration, Mean (4-12) / Absolute sUA concentration: group 7, 1 mg once daily for 10 days; for % sUA change (from baseline), Mean (4-12) / Absolute sUA concentration, Mean (4-12): mean of subjects 4-12; for Absolute sUA concentration: individual subjects 4-12
From the text: A Phase 1, Randomized, Double-Blind, Placebo-Controlled Study to Evaluate Safety, Tolerability, Pharmacokinetics and Preliminary Food Effect of Multiple Rising Doses of a URAT1 Inhibitor, in Healthy Adult Male Volunteers.
Fasted subjects receive oral doses of active or placebo, once daily, for 10 days, at the following doses:
36 subjects in 3 dose groups, 12 subjects/group, are randomized […] to receive active (9/group) or placebo ([…]). All study procedures are the same regardless of whether subject receives active or placebo. Total duration of subject participation, including screening period, is ˜2-4 weeks, and the total volume of blood collected from each subject during the entire study <500 mL, (less than typically collected during a volunteer blood donation).
5 mg, active and placebo, tablets packaged in 35 count HDPE bottles, stored at controlled room temperature (15-30° C.). Placebo tablets are designed to match the active tablets—identical size, form, taste, and color, and containing the same excipients. 1 mg doses were administered as oral solutions.
Subjects dosed in the morning of Days 1-10 with ˜240 mL of room temp water.
Urine, serum and plasma samples collected periodically
PD samples frozen (−20° C.) and stored; all samples from a given subject assayed in a single analytical run.

Compound: CC(C)(Sc1ccncc1-c1ccc(C#N)c2ccccc12)C(=O)O [2-((3-(4-cyanonaphthalen-1-yl)pyridin-4-yl)thio)-2-methylpropanoic acid]
- % sUA change (from baseline), Mean (3-11) (Time 0 (baseline)): 0%
- Absolute sUA concentration, Mean (3-11) (Time 0 (baseline)): 6.4 mg/dL
- % sUA change (from baseline), Mean (3-11) (Time 6): −30.2%
- Absolute sUA concentration, Mean (3-11) (Time 6): 4.5 mg/dL
- % sUA change (from baseline), Mean (3-11) (Time 12): −36.8%
- Absolute sUA concentration, Mean (3-11) (Time 12): 4.1 mg/dL
- % sUA change (from baseline), Mean (3-11) (Time 24): −32.0%
- Absolute sUA concentration, Mean (3-11) (Time 24): 4.4 mg/dL
- % sUA change (from baseline), Mean (3-11) (Time 48): −35.0%
- Absolute sUA concentration, Mean (3-11) (Time 48): 4.1 mg/dL
- % sUA change (from baseline), Mean (3-11) (Time 72): −49.7%
- Absolute sUA concentration, Mean (3-11) (Time 72): 3.2 mg/dL
- % sUA change (from baseline), Mean (3-11) (Time 96): −53.7%
- Absolute sUA concentration, Mean (3-11) (Time 96): 3.0 mg/dL
- % sUA change (from baseline), Mean (3-11) (Time 102): −55.2%
- Absolute sUA concentration, Mean (3-11) (Time 102): 2.9 mg/dL
- % sUA change (from baseline), Mean (3-11) (Time 108): −57.2%
- Absolute sUA concentration, Mean (3-11) (Time 108): 2.7 mg/dL
- % sUA change (from baseline), Mean (3-11) (Time 120): −47.0%
- Absolute sUA concentration, Mean (3-11) (Time 120): 3.4 mg/dL
- % sUA change (from baseline), Mean (3-11) (Time 144): −44.3%
- Absolute sUA concentration, Mean (3-11) (Time 144): 3.5 mg/dL
- % sUA change (from baseline), Mean (3-11) (Time 168): −49.6%
- Absolute sUA concentration, Mean (3-11) (Time 168): 3.2 mg/dL
- % sUA change (from baseline), Mean (3-11) (Time 192): −55.8%
- Absolute sUA concentration, Mean (3-11) (Time 192): 2.8 mg/dL
- % sUA change (from baseline), Mean (3-11) (Time 216): −51.3%
- Absolute sUA concentration, Mean (3-11) (Time 216): 3.1 mg/dL
- % sUA change (from baseline), Mean (3-11) (Time 222, post dosing): −56.1%
- Absolute sUA concentration, Mean (3-11) (Time 222, post dosing): 2.8 mg/dL
- % sUA change (from baseline), Mean (3-11) (Time 228, post dosing): −57.8%
- Absolute sUA concentration, Mean (3-11) (Time 228, post dosing): 2.7 mg/dL
- % sUA change (from baseline), Mean (3-11) (Time 240, post dosing): −48.6%
- Absolute sUA concentration, Mean (3-11) (Time 240, post dosing): 3.3 mg/dL
- % sUA change (from baseline), Mean (3-11) (Time 246, post dosing): −42.8%
- Absolute sUA concentration, Mean (3-11) (Time 246, post dosing): 3.7 mg/dL
- % sUA change (from baseline), Mean (3-11) (Time 252, post dosing): −43.6%
- Absolute sUA concentration, Mean (3-11) (Time 252, post dosing): 3.6 mg/dL
- % sUA change (from baseline), Mean (3-11) (Time 264, post dosing): −38.9%
- Absolute sUA concentration, Mean (3-11) (Time 264, post dosing): 3.9 mg/dL
- % sUA change (from baseline), Mean (3-11) (Time 270, post dosing): −36.1%
- Absolute sUA concentration, Mean (3-11) (Time 270, post dosing): 4.1 mg/dL
- % sUA change (from baseline), Mean (3-11) (Time 288, post dosing): −35.1%
- Absolute sUA concentration, Mean (3-11) (Time 288, post dosing): 4.2 mg/dL
- % sUA change (from baseline), Mean (3-11) (Time 312, post dosing): −25.9%
- Absolute sUA concentration, Mean (3-11) (Time 312, post dosing): 4.7 mg/dL
- % sUA change (from baseline), Mean (4-12) (Time 0): 0%
- Absolute sUA concentration, Mean (4-12) (Time 0): 6.2 mg/dL
- % sUA change (from baseline), Mean (4-12) (Time 6): −3.0%
- Absolute sUA concentration, Mean (4-12) (Time 6): 6.0 mg/dL
- % sUA change (from baseline), Mean (4-12) (Time 12): −9.2%
- Absolute sUA concentration, Mean (4-12) (Time 12): 5.6 mg/dL
- % sUA change (from baseline), Mean (4-12) (Time 24): 1.4%
- Absolute sUA concentration, Mean (4-12) (Time 24): 6.2 mg/dL
- % sUA change (from baseline), Mean (4-12) (Time 48): −17.6%
- Absolute sUA concentration, Mean (4-12) (Time 48): 5.1 mg/dL
- % sUA change (from baseline), Mean (4-12) (Time 72): −3.4%
- Absolute sUA concentration, Mean (4-12) (Time 72): 6.0 mg/dL
- Absolute sUA concentration (Time 96): 5.0 mg/dL (2×) and 5.1 mg/dL (2×) and 6.7 mg/dL (2×) and 6.1 mg/dL and 6.0 mg/dL and 5.5 mg/dL
- % sUA change (from baseline), Mean (4-12) (Time 96): −7.9%
- Absolute sUA concentration, Mean (4-12) (Time 96): 5.7 mg/dL
- Absolute sUA concentration (Time 102): 4.4 mg/dL and 4.9 mg/dL (2×) and 6.2 mg/dL (2×) and 5.9 mg/dL and 5.7 mg/dL and 4.6 mg/dL and 5.4 mg/dL
- % sUA change (from baseline), Mean (4-12) (Time 102): −13.2%
- Absolute sUA concentration, Mean (4-12) (Time 102): 5.4 mg/dL
- Absolute sUA concentration (Time 108): 4.1 mg/dL and 4.4 mg/dL and 4.8 mg/dL and 6.1 mg/dL and 5.9 mg/dL and 5.4 mg/dL and 5.6 mg/dL and 4.3 mg/dL and 5.0 mg/dL
- % sUA change (from baseline), Mean (4-12) (Time 108): −18.0%
- Absolute sUA concentration, Mean (4-12) (Time 108): 5.1 mg/dL
- Absolute sUA concentration (Time 120): 4.6 mg/dL and 5.0 mg/dL (2×) and 4.9 mg/dL and 6.6 mg/dL and 6.2 mg/dL (2×) and 5.8 mg/dL and 5.6 mg/dL
- % sUA change (from baseline), Mean (4-12) (Time 120): −10.3%
- Absolute sUA concentration, Mean (4-12) (Time 120): 5.5 mg/dL
- Absolute sUA concentration (Time 144): 4.6 mg/dL and 5.0 mg/dL (2×) and 4.8 mg/dL and 6.5 mg/dL and 6.2 mg/dL and 6.1 mg/dL and 5.8 mg/dL and 5.5 mg/dL
- % sUA change (from baseline), Mean (4-12) (Time 144): −11.0%
- Absolute sUA concentration, Mean (4-12) (Time 144): 5.5 mg/dL
- Absolute sUA concentration (Time 168): 5.2 mg/dL and 5.8 mg/dL and 5.6 mg/dL and 7.2 mg/dL and 6.8 mg/dL and 6.3 mg/dL and 6.5 mg/dL and 5.4 mg/dL and 6.2 mg/dL
- % sUA change (from baseline), Mean (4-12) (Time 168): −0.8%
